Laboratory results taken from paper PMC10758494 (Frontiers in Pharmacology, 2023).
Where “and” joins values, the source holds several entries; their conditions need not be identical. Equal values may be shown once. Read-outs that look alike come from different tables or passages of the source. Positions of bridges follow the written chain, without caps; N, C: chain ends. Residues, ends and D or L forms follow the SMILES beside them.

Columns and labels:
[1] = molecular target: T1, rat α9α10 nAChR (Rattus norvegicus, UniProt P43144+Q9JLB5); experiment: cell-based; details: for IC50: 500 μM ACh, X. laevis oocytes
T1 construct: expressed in transfected cells; host or cells: Xenopus laevis oocytes injected with cRNA
T1 sequence (P43144 26-479): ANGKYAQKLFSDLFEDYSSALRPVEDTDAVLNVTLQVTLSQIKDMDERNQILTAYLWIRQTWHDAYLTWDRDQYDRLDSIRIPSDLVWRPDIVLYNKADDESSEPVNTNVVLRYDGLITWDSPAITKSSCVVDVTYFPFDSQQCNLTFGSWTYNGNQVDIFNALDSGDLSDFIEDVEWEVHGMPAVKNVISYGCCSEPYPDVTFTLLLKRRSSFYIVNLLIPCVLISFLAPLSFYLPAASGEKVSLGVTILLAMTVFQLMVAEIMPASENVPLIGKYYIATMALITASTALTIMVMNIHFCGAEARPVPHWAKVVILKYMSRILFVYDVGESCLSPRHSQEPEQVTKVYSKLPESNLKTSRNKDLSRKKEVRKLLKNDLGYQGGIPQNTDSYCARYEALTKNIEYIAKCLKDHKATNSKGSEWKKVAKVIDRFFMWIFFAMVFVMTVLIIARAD
T1 sequence (Q9JLB5 25-447): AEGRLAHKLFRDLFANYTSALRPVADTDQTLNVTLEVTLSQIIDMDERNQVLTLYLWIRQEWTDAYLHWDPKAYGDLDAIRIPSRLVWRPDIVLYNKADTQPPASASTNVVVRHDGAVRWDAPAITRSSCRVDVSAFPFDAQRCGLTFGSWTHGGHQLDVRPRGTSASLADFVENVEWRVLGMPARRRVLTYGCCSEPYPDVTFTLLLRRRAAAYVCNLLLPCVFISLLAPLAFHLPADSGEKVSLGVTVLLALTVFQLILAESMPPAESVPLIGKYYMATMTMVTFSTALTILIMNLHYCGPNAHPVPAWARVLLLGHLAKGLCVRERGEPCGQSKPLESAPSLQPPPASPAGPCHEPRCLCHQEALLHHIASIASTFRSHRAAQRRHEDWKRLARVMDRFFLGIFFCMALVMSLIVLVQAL

[2] = molecular target: T2, human α7 nAChR (Homo sapiens, UniProt P36544); experiment: cell-based; details: for inhibition at 500 µM: read-out: Inhibition of PNU282987-evoked response
T2 construct: α7 nAChR endogenously expressed in neuroblastoma SH-SY5Y cells; endogenous in cells; host or cells: SH-SY5Y human neuroblastoma cells
T2 sequence (P36544 23-502): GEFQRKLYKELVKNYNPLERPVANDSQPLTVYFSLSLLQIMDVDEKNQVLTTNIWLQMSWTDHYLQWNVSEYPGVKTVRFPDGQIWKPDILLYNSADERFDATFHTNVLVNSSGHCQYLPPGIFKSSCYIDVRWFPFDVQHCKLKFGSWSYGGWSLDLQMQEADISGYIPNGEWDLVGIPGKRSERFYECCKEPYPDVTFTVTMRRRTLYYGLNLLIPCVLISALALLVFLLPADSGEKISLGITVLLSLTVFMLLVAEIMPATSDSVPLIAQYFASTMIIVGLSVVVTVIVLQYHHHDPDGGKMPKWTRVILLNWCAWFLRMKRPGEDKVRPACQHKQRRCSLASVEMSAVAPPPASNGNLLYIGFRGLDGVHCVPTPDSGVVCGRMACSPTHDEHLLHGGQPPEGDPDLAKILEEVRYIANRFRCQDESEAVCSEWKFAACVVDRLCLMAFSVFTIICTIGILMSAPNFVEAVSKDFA

[3] = tested on: SH-SY5Y cells; experiment: Calcium imaging, effect of compound alone on [Ca2+]i in SH-SY5Y cells; format: cell-based, human; details: 10 μM, without α7 nAChR activation
[4] = molecular target: T3, human α9α10 nAChR (Homo sapiens, UniProt Q9GZZ6+Q9UGM1); set-up: method as in Lebedev et al., 2019; details: read-out: IC50 on α9α10 nAChR; 95% CI in brackets; ref Lebedev et al., 2019; cited from earlier work
T3 construct: expressed in transfected cells; host or cells: Xenopus laevis oocytes injected with cRNA
T3 sequence (Q9UGM1 26-479 limits assumed): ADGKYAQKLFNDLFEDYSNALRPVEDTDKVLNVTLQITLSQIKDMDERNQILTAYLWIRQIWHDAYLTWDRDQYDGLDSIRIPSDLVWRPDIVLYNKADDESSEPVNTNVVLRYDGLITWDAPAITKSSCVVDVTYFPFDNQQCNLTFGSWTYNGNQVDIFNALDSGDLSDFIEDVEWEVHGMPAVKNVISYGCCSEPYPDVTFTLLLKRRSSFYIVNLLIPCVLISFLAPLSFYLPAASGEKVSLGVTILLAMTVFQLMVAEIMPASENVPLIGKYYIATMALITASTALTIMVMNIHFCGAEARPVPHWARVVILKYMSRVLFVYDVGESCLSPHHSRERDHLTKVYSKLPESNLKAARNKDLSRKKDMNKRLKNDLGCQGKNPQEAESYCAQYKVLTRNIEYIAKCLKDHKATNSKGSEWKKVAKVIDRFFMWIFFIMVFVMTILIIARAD
T3 sequence (Q9GZZ6 25-450): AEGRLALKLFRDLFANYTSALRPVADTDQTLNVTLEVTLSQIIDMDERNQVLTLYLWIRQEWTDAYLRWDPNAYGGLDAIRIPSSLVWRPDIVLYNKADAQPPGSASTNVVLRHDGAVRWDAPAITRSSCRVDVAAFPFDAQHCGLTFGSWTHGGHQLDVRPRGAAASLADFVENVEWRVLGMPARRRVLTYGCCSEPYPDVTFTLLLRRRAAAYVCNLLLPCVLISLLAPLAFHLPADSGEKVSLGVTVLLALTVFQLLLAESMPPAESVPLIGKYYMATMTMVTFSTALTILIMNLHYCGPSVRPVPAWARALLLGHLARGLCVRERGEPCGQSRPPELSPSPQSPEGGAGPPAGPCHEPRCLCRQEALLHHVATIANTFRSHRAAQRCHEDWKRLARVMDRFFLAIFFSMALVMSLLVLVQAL

[5] = molecular target: T3, human α9α10 nAChR; experiment: Two-electrode voltage clamp, human α9α10 nAChR in X. laevis oocytes; format: cell-based; details: IC50, inhibition of ACh-evoked currents (α9α10 nAChR), 500 μM ACh, mean ± SEM

`CC(CN)CNCCCCNCC(C)CN` (racemic) [rac-2,11-Me2Spm] gave an IC50 ([1]; read-out: IC50, inhibition of rat α9α10 nAChR) of roughly 500000 nM.

With `N=C(N)NCCC[C@H](N)C(=O)NCCCNCCCNCCCCCNC(=O)[C@H](CC(N)=O)NC(=O)Cc1ccc(O)cc1O` [AgTx-636, argiotoxin-636] the inhibition at 10 µM ([2]; SH-SY5Y, read-out: Inhibition of the action of α7 nAChR agonist PNU282987) was no less than 70%, the IC50 ([1]; IC50, inhibition of ACh-evoked currents (rat α9α10 nAChR)) was ~200 nM and 220 nM and the “[Ca2+]i change caused by the compound alone” value [3] was “noticeable [Ca^2+]i increase”.

`NCCCCN=C(N)N` [Agm, agmatine] gave an inhibition at 500 µM ([2]; SH-SY5Y) of roughly 20%.

For `N=C(N)NCCC[C@H](NC(=O)[C@H](CCCNC(=N)N)NC(=O)[C@H](CCCNC(=N)N)NC(=O)[C@H](CCCNC(=N)N)NC(=O)[C@H](CCCNC(=N)N)NC(=O)[C@H](CCCNC(=N)N)NC(=O)[C@H](CCCNC(=N)N)NC(=O)[C@@H](N)CCCNC(=N)N)C(=O)O` [R8, octa-arginine], the IC50 [2] is listed as 14.5 ± 1 nM and the IC50 [4] is listed as 44 nM.

For `NCCCNCCCCNCCCN` [Spm, spermine], the inhibition at 500 µM ([2]; SH-SY5Y) was roughly 20% and the “Inhibition of rat α9α10 nAChR at 500 μM” value [1] was “no inhibition”.

For `N=C(N)NCCC[C@@H]1NC(=O)[C@H](CCCNC(=N)N)NC(=O)[C@H](CCCNC(=N)N)NC(=O)[C@H](CCCNC(=N)N)NC(=O)[C@H](CCCNC(=N)N)NC(=O)[C@H](CCCNC(=N)N)NC(=O)[C@H](CCCNC(=N)N)NC(=O)[C@H](CCCNC(=N)N)NC(=O)[C@@H](N)CSSC[C@@H](C(=O)O)NC1=O` [“cyclo”R8] (H-CRRRRRRRRC-OH; disulfide 1-10), the IC50 [2] was 13.3 ± 3 nM and the IC50 [5] was ~60 nM and 61.8 nM.

In the case of α-cobratoxin [CTX], the “Suppression of α7 nAChR activity” value ([2]; compound 5 μM, 200 nM PNU282987, SH-SY5Y cells) is reported as “completely suppressed”.
